# pIC50: −log10 of the molar value.
# Biological target: T1, hTDO2 (Homo sapiens, UniProt P48775)
# T1 construct: endogenous in cells; host or cells: A172 human brain glioblastoma cells (ATCC CRL-1620)
# Experiment: Cellular assay for TDO2 activity determination in A172 cells
# Format: cell-based
# Details: human glioblastoma A172 cells naturally expressing hTDO2; overnight incubation; kynurenine by absorbance at 480 nm
# How it was run: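 A172 glioblastoma cells endogenously expressing hTDO2, 1.25×10^4 cells/well, incubated overnight at 37 °C, 5% CO2 in IMDM with 2% FBS and ten compound concentrations. Supernatant kynurenine measured after TCA treatment and Ehrlich's reagent (4-dimethylaminobenzaldehyde) by absorbance at 480 nm against a kynurenine standard curve, then curve-fitted.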
# T1 sequence (P48775 whole entry): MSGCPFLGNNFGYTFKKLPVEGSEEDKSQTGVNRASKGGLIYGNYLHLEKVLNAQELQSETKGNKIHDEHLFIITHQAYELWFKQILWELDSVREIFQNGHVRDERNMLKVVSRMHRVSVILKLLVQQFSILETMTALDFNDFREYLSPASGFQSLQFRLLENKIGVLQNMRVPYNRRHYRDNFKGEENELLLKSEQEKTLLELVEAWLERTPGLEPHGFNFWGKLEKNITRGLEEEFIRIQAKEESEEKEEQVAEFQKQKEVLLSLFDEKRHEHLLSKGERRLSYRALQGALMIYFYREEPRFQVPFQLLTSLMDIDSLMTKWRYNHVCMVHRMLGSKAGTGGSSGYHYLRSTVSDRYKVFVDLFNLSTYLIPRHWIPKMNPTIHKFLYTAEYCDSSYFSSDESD
row,SMILES,pIC50
1,"CC1c2cc(-c3c[nH]c4cc(F)ccc34)ccc2S(=O)(=O)N1C[C@@]1(C)CCC(=O)N1 (single isomer, unassigned; (-)) [Example 84]",6.41
2,"CC1c2cc(-c3c[nH]c4cc(F)ccc34)ccc2S(=O)(=O)N1Cc1ncn(C)n1 (single isomer, unassigned; (-)) [Example 85, (−)-5-(6-fluoro-1H-indol-3-yl)-3-methyl-2-((1-methyl-1H-1,2,4-triazol-3-yl)methyl)-2,3-dihydrobenzo[d]isothiazole 1,1-dioxide]",7.24
3,"CC1c2cc(-c3c[nH]c4cc(F)ccc34)ccc2S(=O)(=O)N1CC1(C)COC(=O)N1 (single isomer, unassigned; (-)) [Example 88, (−)-4-((5-(6-fluoro-1H-indol-3-yl)-3-methyl-1,1-dioxidobenzo[d]isothiazol-2(3H)-yl)methyl)-4-methyloxazolidin-2-one]",7.17
4,"CC1c2cc(-c3c[nH]c4cc(F)ccc34)ccc2S(=O)(=O)N1C1CNC1 (single isomer, unassigned; (-)) [Example 91, (−)-2-(azetidin-3-yl)-5-(6-fluoro-1H-indol-3-yl)-3-methyl-2,3-dihydrobenzo[d]isothiazole 1,1-dioxide]",6.59
5,"CNC(=O)C(O)CN1C(C)c2cc(-c3c[nH]c4cc(F)ccc34)ccc2S1(=O)=O (single isomer, unassigned; (-)) [Example 98, (−)-3-(5-(6-fluoro-1H-indol-3-yl)-3-methyl-1,1-dioxidobenzo[d]isothiazol-2(3H)-yl)-2-hydroxy-N-methylpropanamide]",6.94
6,"CNC(=O)C(O)CN1C(C)c2cc(-c3c[nH]c4cc(F)ccc34)ccc2S1(=O)=O (single isomer, unassigned; (-)) [Example 100, (−)-3-(5-(6-fluoro-1H-indol-3-yl)-3-methyl-1,1-dioxidobenzo[d]isothiazol-2(3H)-yl)-2-hydroxy-N-methylpropanamide]",7.48
7,"CNC(=O)C(N)CN1C(C)c2cc(-c3c[nH]c4cc(F)ccc34)ccc2S1(=O)=O (single isomer, unassigned; (-)) [Example 103, (−)-2-amino-3-(5-(6-fluoro-1H-indol-3-yl)-3-methyl-1,1-dioxidobenzo[d]isothiazol-2(3H)-yl)-N-methylpropanamide]",6.38
8,"CNC(=O)C(CN1C(C)c2cc(-c3c[nH]c4cc(F)ccc34)ccc2S1(=O)=O)OC (single isomer, unassigned; (-)) [Example 106, (−)-3-(5-(6-fluoro-1H-indol-3-yl)-3-methyl-1,1-dioxidobenzo[d]isothiazol-2(3H)-yl)-2-methoxy-N-methylpropanamide]",6.29
9,"CNC(=O)C(CN1C(C)c2cc(-c3c[nH]c4cc(F)ccc34)ccc2S1(=O)=O)OC (single isomer, unassigned; (-)) [Example 108, (−)-3-(5-(6-fluoro-1H-indol-3-yl)-3-methyl-1,1-dioxidobenzo[d]isothiazol-2(3H)-yl)-2-methoxy-N-methylpropanamide]",7.03
10,"CCOC(=O)NCCN1C(C)c2cc(-c3c[nH]c4cc(F)ccc34)ccc2S1(=O)=O (single isomer, unassigned; (-)) [Example 109, (−)-ethyl (2-(5-(6-fluoro-1H-indol-3-yl)-3-methyl-1,1-dioxidobenzo[d]isothiazol-2(3H)-yl)ethyl)carbamate]",6.46
11,"CNC(=O)CN1C(C)c2cc(-c3c[nH]c4cc(F)ccc34)ccc2S1(=O)=O (single isomer, unassigned; (-)) [Example 111, (−)-2-(5-(6-fluoro-1H-indol-3-yl)-3-methyl-1,1-dioxidobenzo[d]isothiazol-2(3H)-yl)-N-methylacetamide]",7.35
12,"CC1c2cc(-c3c[nH]c4cc(F)ccc34)ccc2S(=O)(=O)N1CC(=O)N(C)C (single isomer, unassigned; (-)) [Example 113, (−)-2-(5-(6-fluoro-1H-indol-3-yl)-3-methyl-1,1-dioxidobenzo[d]isothiazol-2(3H)-yl)-N,N-dimethylacetamide]",7.23
13,"CC1c2cc(-c3c[nH]c4cc(F)ccc34)ccc2S(=O)(=O)N1CC(N)=O (single isomer, unassigned; (-)) [Example 116]",7.59
14,"CC1c2cc(-c3c[nH]c4cc(F)ccc34)ccc2S(=O)(=O)N1CCN1CCOCC1 (single isomer, unassigned; (-)) [Example 117, (−)-5-(6-fluoro-1H-indol-3-yl)-3-methyl-2-(2-morpholinoethyl)-2,3-dihydrobenzo[d]isothiazole 1,1-dioxide]",6.51
15,"CC1c2cc(-c3c[nH]c4cc(F)ccc34)ccc2S(=O)(=O)N1C1CCNC(=O)C1 (single isomer, unassigned; (-)) [Example 119, (−)-4-(-5-(6-fluoro-1H-indol-3-yl)-3-methyl-1,1-dioxidobenzo[d]isothiazol-2(3H)-yl)piperidin-2-one]",6.41
16,"CC1c2cc(-c3c[nH]c4cc(F)ccc34)ccc2S(=O)(=O)N1C1CCNC(=O)C1 (single isomer, unassigned; (-)) [Example 122, (−)-4-(-5-(6-fluoro-1H-indol-3-yl)-3-methyl-1,1-dioxidobenzo[d]isothiazol-2(3H)-yl)piperidin-2-one]",7.27

row,SMILES,pIC50
1,"CC1c2cc(-c3c[nH]c4cc(F)ccc34)ccc2S(=O)(=O)N1C1CNC(=O)C1 (single isomer, unassigned; (-)) [Example 124, (−)-4-(5-(6-fluoro-1H-indol-3-yl)-3-methyl-1,1-dioxido-benzo[d]isothiazol-2(3H)-yl)pyrrolidin-2-one]",7.17
2,"CC1c2cc(-c3c[nH]c4cc(F)ccc34)ccc2S(=O)(=O)N1C1CNC(=O)C1 (single isomer, unassigned; (-)) [Example 125, (−)-4-(5-(6-fluoro-1H-indol-3-yl)-3-methyl-1,1-dioxido-benzo[d]isothiazol-2(3H)-yl)pyrrolidin-2-one]",6.30
3,"CNC(=O)CN1C(CO)c2cc(-c3c[nH]c4cc(F)ccc34)ccc2S1(=O)=O (single isomer, unassigned; (-)) [Example 127, (−)-2-(5-(6-fluoro-1H-indol-3-yl)-3-(hydroxymethyl)-1,1-dioxidobenzo[d]isothiazol-2(3H)-yl)-N-methylacetamide]",7.06
4,"Cn1cnc(CN2C(CO)c3cc(-c4c[nH]c5cc(F)ccc45)ccc3S2(=O)=O)n1 (single isomer, unassigned; (-)) [Example 129, (−)-5-(6-fluoro-1H-indol-3-yl)-3-(hydroxymethyl)-2-((1-methyl-1H-1,2,4-triazol-3-yl)methyl)-2,3-dihydrobenzo[d]isothiazole 1,1-dioxide]",7.41
5,"O=S1(=O)c2ccc(-c3c[nH]c4cc(F)ccc34)cc2C(CO)N1CCO (single isomer, unassigned; (-)) [Example 132, (−)-5-(6-fluoro-1H-indol-3-yl)-2-(2-hydroxyethyl)-3-(hydroxymethyl)-2,3-dihydrobenzo[d]isothiazole 1,1-dioxide]",7.09
6,"CC1c2cc(-c3c[nH]c4cc(F)ccc34)ccc2S(=O)(=O)N1CCc1n[nH]c(=O)o1 (single isomer, unassigned; (-)) [Example 133, (−)-5-(2-(5-(6-fluoro-1H-indol-3-yl)-3-methyl-1,1-dioxidobenzo[d]isothiazol-2(3H)-yl)ethyl)-1,3,4-oxadiazol-2(3H)-one]",6.42
7,"CS(=O)(=O)NCC1NS(=O)(=O)c2ccc(-c3c[nH]c4cc(F)ccc34)cc21 (single isomer, unassigned; (-)) [Example 139, (−)-N-((5-(6-fluoro-1H-indol-3-yl)-1,1-dioxido-2,3-dihydrobenzo[d]isothiazol-3-yl)methyl)methanesulfonamide]",6.28
8,"O=S1(=O)c2ccc(-c3c[nH]c4cc(F)ccc34)cc2C(CO)N1CC(O)CO (single isomer, unassigned; (-)) [Example 142, (−)-2-(2,3-dihydroxypropyl)-5-(6-fluoro-1H-indol-3-yl)-3-(hydroxymethyl)-2,3-dihydrobenzo[d]isothiazole 1,1-dioxide]",6.91
9,"O=S1(=O)c2ccc(-c3c[nH]c4cc(F)ccc34)cc2C(CO)N1CC(O)CO (single isomer, unassigned; (-)) [Example 143, (−)-2-(2,3-dihydroxypropyl)-5-(6-fluoro-1H-indol-3-yl)-3-(hydroxymethyl)-2,3-dihydrobenzo[d]isothiazole 1,1-dioxide]",6.47
10,"CNC(=O)C(C)N1C(C)c2cc(-c3c[nH]c4cc(F)ccc34)ccc2S1(=O)=O (single isomer, unassigned; (-)) [Example 145, (−)-2-(5-(6-fluoro-1H-indol-3-yl)-3-methyl-1,1-dioxidobenzo[d]isothiazol-2(3H)-yl)-N-methylpropanamide]",7.04
11,"CNC(=O)C(C)N1C(C)c2cc(-c3c[nH]c4cc(F)ccc34)ccc2S1(=O)=O (single isomer, unassigned; (-)) [Example 148, (−)-2-(5-(6-fluoro-1H-indol-3-yl)-3-methyl-1,1-dioxidobenzo[d]isothiazol-2(3H)-yl)-N-methylpropanamide]",6.58
12,"CC1(C)NS(=O)(=O)c2ccc(-c3c[nH]c4cc(F)ccc34)cc21 [Example 5, 5-(6-fluoro-1H-indol-3-yl)-3,3-dimethyl-2,3-dihydrobenzo[d]isothiazole 1,1-dioxide]",7.02
13,"NCCN1Cc2cc(-c3c[nH]c4cc(F)ccc34)ccc2S1(=O)=O [Example 31, 2-(2-aminoethyl)-5-(6-fluoro-1H-indol-3-yl)-2,3-dihydrobenzo[d]isothiazole 1,1-dioxide]",6.66
14,"CN(C)CCN1Cc2cc(-c3c[nH]c4cc(F)ccc34)ccc2S1(=O)=O [Example 32, 2-(2-(dimethylamino)ethyl)-5-(6-fluoro-1H-indol-3-yl)-2,3-dihydrobenzo[d]isothiazole 1,1-dioxide]",6.64
15,"O=S1(=O)c2ccc(-c3c[nH]c4cc(F)ccc34)cc2CN1CCO [Example 33, 5-(6-fluoro-1H-indol-3-yl)-2-(2-hydroxyethyl)-2,3-dihydrobenzo[d]isothiazole 1,1-dioxide]",7.05

# — patent publication US9873690B2, “3-indol substituted derivatives, pharmaceutical compositions and methods for use” (Pfizer Inc., priority 2015, dated 2018)
